{"source": "patent US8772268B2", "about": "“Bisphosphonamidate prodrugs and uses thereof” (The Johns Hopkins University, priority 2010, dated 2014)", "key": {"[1]": {"tested_on": "MDA-MB-453 (breast) cancer cell line", "assay": "MTS cell proliferation assay, MDA-MB-453", "type": "cell-based", "protocol": "(§1) Cell proliferation was determined using the CellTiter 96 Aqueous One Solution Cell Proliferation Assay MTS assay. A549 NSCLC cells were plated at 1.5×10^3 cells per well in flat bottom 96 well plates in 99 μL of media and allowed to adhere overnight. The drugs were serially diluted in 100% DMSO. For each drug treatment group, 1 μL of a 100× stock solution was added to each well for a final DMSO concentration of 1%. Cells were treated for 24, 48 or 72 hours. Cells were incubated with MTS dye (20 μL well^−1) for 40 min to 2 h. Absorbance at 490 nm was determined using a SpectraMax M2 (Molecular Devices) plate reader. The percent cell proliferation was calculated by converting the experimental absorbance to percentage of control, which was then plotted vs. drug concentration. The IC50 values were determined using a non-linear dose-response analysis in GraphPad Prism version 4.0. The IC50 is defined as the concentration of drug needed to cause a 50% decrease in proliferation compared to vehicle control.\n(§2) The activity of Clodronate prodrug (14) was tested against other cell lines, include prostate (PIP3) and breast (MDA-MB-453) cancer cells lines. Cell proliferation was determined using the CellTiter 96 Aqueous One Solution Cell Proliferation Assay MTS assay as discussed above. Results are shown in FIG. 22 and in the table below."}, "HT29": {"tested_on": "HT29", "assay": "NCI-60 DTP Human Tumor Cell Line Screen", "type": "cell-based", "details": "HT29, Colon Cancer, 48 h"}, "OPVCAR-5": {"tested_on": "OPVCAR-5", "assay": "NCI-60 DTP Human Tumor Cell Line Screen", "type": "cell-based", "details": "OPVCAR-5, Ovarian Cancer, 48 h"}, "OVCAR-4": {"tested_on": "OVCAR-4", "assay": "NCI-60 DTP Human Tumor Cell Line Screen", "type": "cell-based", "details": "OVCAR-4, Ovarian Cancer, 48 h"}, "OVCAR-3": {"tested_on": "OVCAR-3", "assay": "NCI-60 DTP Human Tumor Cell Line Screen", "type": "cell-based", "details": "OVCAR-3, Ovarian Cancer, 48 h"}, "SNB-19": {"tested_on": "SNB-19", "assay": "NCI-60 DTP Human Tumor Cell Line Screen", "type": "cell-based", "details": "SNB-19, CNS Cancer, 48 h"}, "ACHN": {"tested_on": "ACHN", "assay": "NCI-60 DTP Human Tumor Cell Line Screen", "type": "cell-based", "details": "Renal Cancer, 48 h"}, "[2]": {"tested_on": "PIP3 (prostate) cancer cell line", "assay": "MTS cell proliferation assay, PIP3", "type": "cell-based", "protocol": "as §1, §2"}, "P. falciparum (NF54)": {"tested_on": "P. falciparum (NF54)", "assay": "Antimalarial [3H]-hypoxanthine incorporation assay", "type": "cell-based, Plasmodium falciparum", "details": "P. falciparum (NF54); read-out: IC50", "protocol": "Plasmodium falciparum culture. NF54 P. falciparum parasites were maintained in O+ positive erythrocytes (obtained weekly from a rotating pool of screened healthy donors) in complete medium containing RPMI (Sigma), 25 mM N-2-hydroxyethylpiperazine-N′-2-ethanesulfonic acid (HEPES; Sigma), 27 mM sodium bicarbonate (Sigma) and 10% heat-inactivated male O+ serum in non-vented flasks. Hematocrit was maintained at 2.4%. Flasks were gassed with a mixture of 3% oxygen, 4% carbon dioxide, 93% nitrogen. Parasitemia was maintained at 0.1-5% by changing medium and erythrocytes two to three times a week.\nAntimalarial activity was measured using a [^3H]-hypoxanthine incorporation assay as described previously (Desjardins et al., Antimicrob. Agents Chemother., vol. 16, p. 710, 1979; Milhous et al., Antimicrob. Agents Chemother., vol. 27, np. 525, 1985). […] For surveys, each concentration was assayed in triplicate while in expansions, each concentration was assayed in quadruplicate. To each well, 0.64 μCi of [^3H]-hypoxanthine (10-30 Ci/mmol; Perkin Elmer) was added and the plate was incubated for an additional 20 to 24 h. Samples from each well were harvested on filter paper and tritium counts were measured on the Beckmann Coulter LS6500 scintillation counter. […] Values considered as outliers according to Chauvenet's criterion were discarded and dropped from analysis. One survey and at least one expansion was performed for each compound."}, "SK-MEL-28": {"tested_on": "SK-MEL-28", "assay": "NCI-60 DTP Human Tumor Cell Line Screen", "type": "cell-based", "details": "SK-MEL-28, Melanoma, 48 h"}, "CAKI-1": {"tested_on": "CAKI-1", "assay": "NCI-60 DTP Human Tumor Cell Line Screen", "type": "cell-based", "details": "CAKI-1, Renal Cancer, 48 h"}, "NCI-H460": {"tested_on": "NCI-H460", "assay": "NCI-60 DTP Human Tumor Cell Line Screen", "type": "cell-based", "details": "NCI-H460, Non-Small Cell Lung Cancer, 48 h"}, "U251": {"tested_on": "U251", "assay": "NCI-60 DTP Human Tumor Cell Line Screen", "type": "cell-based", "details": "U251, CNS Cancer, 48 h"}, "SK-MEL-2": {"tested_on": "SK-MEL-2", "assay": "NCI-60 DTP Human Tumor Cell Line Screen", "type": "cell-based", "details": "SK-MEL-2, Melanoma, 48 h"}, "LOX IMVI": {"tested_on": "LOX IMVI", "assay": "NCI-60 DTP Human Tumor Cell Line Screen", "type": "cell-based", "details": "Melanoma, 48 h"}, "HCT-116": {"tested_on": "HCT-116", "assay": "NCI-60 DTP Human Tumor Cell Line Screen", "type": "cell-based", "details": "HCT-116, Colon Cancer, 48 h"}, "SK-OV-3": {"tested_on": "SK-OV-3", "assay": "NCI-60 DTP Human Tumor Cell Line Screen", "type": "cell-based", "details": "SK-OV-3, Ovarian Cancer, 48 h"}, "SW-620": {"tested_on": "SW-620", "assay": "NCI-60 DTP Human Tumor Cell Line Screen", "type": "cell-based", "details": "SW-620, Colon Cancer, 48 h"}, "UACC-62": {"tested_on": "UACC-62", "assay": "NCI-60 DTP Human Tumor Cell Line Screen", "type": "cell-based", "details": "UACC-62, Melanoma, 48 h"}, "SNB-75": {"tested_on": "SNB-75", "assay": "NCI-60 DTP Human Tumor Cell Line Screen", "type": "cell-based", "details": "SNB-75, CNS Cancer, 48 h"}}, "data": [{"smiles": "CN(CCCCCl)P(=O)(OCc1ccc([N+](=O)[O-])cc1)C(Cl)(Cl)P(=O)(OCc1ccc([N+](=O)[O-])cc1)N(C)CCCCCl", "note": "(stereo not drawn) [compound 14]", "values": [{"measurement": "EC50", "setting": "[1]", "value": 9, "unit": "µM"}, {"measurement": "Log10GI50", "setting": "HT29", "value": "−5.48"}, {"measurement": "Log10LC50", "setting": "HT29", "value": ">−4.00"}, {"measurement": "Log10TGI", "setting": "HT29", "value": "−4.65"}, {"measurement": "Log10GI50", "setting": "OPVCAR-5", "value": "−5.45"}, {"measurement": "Log10LC50", "setting": "OPVCAR-5", "value": ">−4.00"}, {"measurement": "Log10TGI", "setting": "OPVCAR-5", "value": ">−4.00"}, {"measurement": "Log10GI50", "setting": "OVCAR-4", "value": "−5.54"}, {"measurement": "Log10LC50", "setting": "OVCAR-4", "value": ">−4.00"}, {"measurement": "Log10TGI", "setting": "OVCAR-4", "value": ">−4.00"}, {"measurement": "Log10GI50", "setting": "OVCAR-3", "value": "−5.40"}, {"measurement": "Log10LC50", "setting": "OVCAR-3", "value": ">−4.00"}, {"measurement": "Log10TGI", "setting": "OVCAR-3", "value": ">−4.00"}, {"measurement": "Log10GI50", "setting": "SNB-19", "value": "−5.30"}, {"measurement": "Log10LC50", "setting": "SNB-19", "value": ">−4.00"}, {"measurement": "Log10TGI", "setting": "SNB-19", "value": ">−4.00"}, {"measurement": "Log10GI50", "setting": "ACHN", "value": "−5.49"}, {"measurement": "Log10LC50", "setting": "ACHN", "value": ">−4.00"}, {"measurement": "Log10TGI", "setting": "ACHN", "value": ">−4.00"}, {"measurement": "EC50", "setting": "[2]", "value": 3000, "unit": "nM"}, {"measurement": "IC50", "setting": "P. falciparum (NF54)", "value": "980 ± 210", "unit": "nM"}, {"measurement": "Log10GI50", "setting": "SK-MEL-28", "value": "−5.42"}, {"measurement": "Log10LC50", "setting": "SK-MEL-28", "value": ">−4.00"}, {"measurement": "Log10TGI", "setting": "SK-MEL-28", "value": ">−4.00"}, {"measurement": "Log10GI50", "setting": "CAKI-1", "value": "−5.54"}, {"measurement": "Log10LC50", "setting": "CAKI-1", "value": ">−4.00"}, {"measurement": "Log10TGI", "setting": "CAKI-1", "value": ">−4.00"}, {"measurement": "Log10GI50", "setting": "NCI-H460", "value": "−5.42"}, {"measurement": "Log10LC50", "setting": "NCI-H460", "value": ">−4.00"}, {"measurement": "Log10TGI", "setting": "NCI-H460", "value": ">−4.00"}, {"measurement": "Log10GI50", "setting": "U251", "value": "−5.45"}, {"measurement": "Log10LC50", "setting": "U251", "value": ">−4.00"}, {"measurement": "Log10TGI", "setting": "U251", "value": ">−4.00"}, {"measurement": "Log10GI50", "setting": "SK-MEL-2", "value": "−5.60"}, {"measurement": "Log10LC50", "setting": "SK-MEL-2", "value": ">−4.00"}, {"measurement": "Log10TGI", "setting": "SK-MEL-2", "value": "−5.18"}, {"measurement": "Log10GI50", "setting": "LOX IMVI", "value": "−5.75"}, {"measurement": "Log10LC50", "setting": "LOX IMVI", "value": "−4.26"}, {"measurement": "Log10TGI", "setting": "LOX IMVI", "value": "−5.33"}, {"measurement": "Log10GI50", "setting": "HCT-116", "value": "−5.58"}, {"measurement": "Log10LC50", "setting": "HCT-116", "value": ">−4.00"}, {"measurement": "Log10TGI", "setting": "HCT-116", "value": ">−4.00"}, {"measurement": "Log10GI50", "setting": "SK-OV-3", "value": "−5.19"}, {"measurement": "Log10LC50", "setting": "SK-OV-3", "value": ">−4.00"}, {"measurement": "Log10TGI", "setting": "SK-OV-3", "value": ">−4.00"}, {"measurement": "Log10GI50", "setting": "SW-620", "value": "−5.27"}, {"measurement": "Log10LC50", "setting": "SW-620", "value": ">−4.00"}, {"measurement": "Log10TGI", "setting": "SW-620", "value": ">−4.00"}, {"measurement": "Log10GI50", "setting": "UACC-62", "value": "−5.70"}, {"measurement": "Log10LC50", "setting": "UACC-62", "value": "−4.11"}, {"measurement": "Log10TGI", "setting": "UACC-62", "value": "−5.30"}, {"measurement": "Log10GI50", "setting": "SNB-75", "value": "−5.65"}, {"measurement": "Log10LC50", "setting": "SNB-75", "value": ">−4.00"}, {"measurement": "Log10TGI", "setting": "SNB-75", "value": "−5.17"}]}]}
